Results from patent US20240208961A1, “EIF4E INHIBITORS AND USES THEREOF” (PIC Therapeutics, Inc., priority 2022, published 2024).
Blank lines part the entries; values can stand above or below the molecule they belong to.

Experiments:
MM.1S = assay: Cell viability assay, suspension cell line, 5 day Alamar Blue (Example 8): MM.1S; assay type: cell-based; conditions: Homo sapiens, MM1.S, 120 h, Multiple Myeloma (Steroid Sensitive) Cancer Cell
Method: (§1) Cell viability assays were performed on certain compounds of the disclosure, according to the following procedure.
(§2) Cell line specific media conditions used:
(§3) The procedure for suspension cell line compound screening was as follows:
(§4) Day 1: Cell Seeding and Compound Dosing
(§5) • Cells were seeded 2×10^5 in 96-well cell culture treated tissue culture plates: 87.5 μL/well; MM.1 S, MM,1R, NCIH510A. • 5-fold serial dilution (8 point) of each compound in DMSO 0-25 mM in compound storage plates was prepared (stored at −80° C. if not to be used immediately). • Cells were rinsed with 1% FBS Media (appropriate to cell line as described above) and replaced with 87.5 μL media prior to dosing. • DMSO compound dilution series was diluted in 1% FBS media (appropriate to cell line as described above)—2 μL in 248 μL to give an 8× final concentration. • Cells were dosed 12.5 μL/well in triplicate to give final dose curved on cells 0-25 μM. • Media blank 100 μL/well×8 was set up. • All plates were incubated at 37° C.
(§6) Day 6: 5 Day Viability Assay
(§7) • Alamar Blue viability reagent was added (10 μL per well) and incubated for 3 hours at 37° C. prior to fluorescence detection (Ex560 nm/Em590 nm) on a Varioskan Lux multimode plate reader.
(§8) Results from cell viability assays are summarized in Table 23, wherein A represents IC50≤1 μM; B represents 1 μM<IC50≤8 μM; and C represents IC50>8 μM. Blank cells indicate that the compound was not tested in a particular assay.

NCIH510A = assay: Cell viability assay, suspension cell line, 5 day Alamar Blue (Example 8): NCIH510A; assay type: cell-based; conditions: Homo sapiens, NCI-H510A, 120 h, Small Cell Lung Cancer Cell Line
Method: as §1, §2, §3, §4, §5, §6, §7, §8

Human eIF4E (aa 28-217) = target: T1, Human eIF4E (aa 28-217) (Homo sapiens, UniProt P06730); assay: 4G-eIF4E protein-based assay (TR-FRET, biotin labeled 4G2 peptide); assay type: binding
T1 construct: Human eIF4E (aa 28-217) with a C-terminal His-tag; made in house
T1 sequence (P06730 28-217): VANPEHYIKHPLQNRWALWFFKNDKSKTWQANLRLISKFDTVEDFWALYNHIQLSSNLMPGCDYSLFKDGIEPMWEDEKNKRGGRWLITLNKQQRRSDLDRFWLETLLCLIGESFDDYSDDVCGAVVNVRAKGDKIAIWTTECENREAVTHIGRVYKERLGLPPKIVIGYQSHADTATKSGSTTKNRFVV
Method: Human eIF4E ([…]) with a C-terminal His-tag was expressed in E. coli in inclusion bodies. The protein was solubilized with 8 M urea and purified under denaturing conditions using nickel-charged HisTrap HP columns (GE Healthcare). The purified protein was then refolded by diluting in 20 mM Hepes pH 7.0, 0.5 M NaCl, 1 mM DTT, […], 0.5 M arginine plus 6 M urea, and then dialyzing overnight into the same buffer without the urea. The protein was further dialyzed into 20 mM Hepes, pH 6.5, 50 mM NaCl, 1 mM EDTA, 1 mM DTT, and concentrated using Hitrap SP sepharose FF columns (GE Healthcare). The concentrated protein was dialyzed into 20 mM Hepes, pH 7.0, 0.5M NaCl, 5 mM DTT and […], and stored at -80° C. until use. Test compounds (3.43 mM stock in DMSO) were diluted 2-fold in series in DMSO (10 concentration points). Compound solutions (1.2 μL/well) were added into black 384-well polypropylene microplates (Matrix, Thermal Scientific). […] The samples were incubated at room temperature (20-23° C.) for 4 hours. Biotin labeled 4G2 peptide ([…])-NH2, 1.75 μM stock in DMSO) was diluted to 0.13 μM in Assay Buffer (without DTT) and 5 μL/well was added. The samples were incubated at room temperature for 20 min. Five microliters per well of 15 nM Eu-streptavidin (Eu-SA, Perkin Elmer) and 96 nM Allophycocyanin (APC)-anti His antibody (Columbia Biosciences) in Assay Buffer (without DTT) were then added and the samples were incubated at room temperature for 20 min. Assay signals were monitored by reading excitation at 340 nm and emission fluorescence at 615 nm and 665 nm on an Envision reader (Perkin Elmer). Normalized TR-FRET (time-resolved fluorescence resonance energy transfer) assay signal (Rn) was calculated by the formula: […] C=(Ac-Ba)/(Dc-Bd) • Where Ac is the fluorescence intensity of 1.5 nM Eu-SA in the assay buffer at 665 nm. IC50 values were calculated using xLFit program (IDBS).

T47D = assay: Cell viability assay, adherent cell line, 5 day Alamar Blue (Example 8): T47D; assay type: cell-based; conditions: Homo sapiens, 120 h, Breast Cancer Cell Viability
Method: as §1, §2
(§9) The procedure for adherent cell line compound screening was as follows:
(§10) • Cells were seeded in 96-well cell culture treated tissue culture plates: ZR-75-1, NIHOVCAR3, T47D, and LOVO cells 4000 cells/well; and HPAFII 3000 cell/well
(§11) Day 3: Compound Dilution and Dosing
as §5, with “•” for “• Cells were seeded 2×10^5 in 96-well cell culture treated tissue culture plates: 87.5 μL/well; MM.1 S, MM,1R, NCIH510A. •”, “dosing. HPAFII was screened in normal 10% FBS Media.” for “dosing.”
(§12) Day 8: 5 Day Viability Assay
as §7, §8

HPAFII = assay: Cell viability assay, adherent cell line, 5 day Alamar Blue (Example 8): HPAFII; assay type: cell-based; conditions: Homo sapiens, HPAF-II, 120 h, Pancreatic Cancer Cell
Method: as §1, §2, §9, §10, §11
as §5, with “•” for “• Cells were seeded 2×10^5 in 96-well cell culture treated tissue culture plates: 87.5 μL/well; MM.1 S, MM,1R, NCIH510A. •”, “dosing. HPAFII was screened in normal 10% FBS Media.” for “dosing.”
as §12, §7, §8

ZR-75-1 [1] = assay: Cell viability assay, adherent cell line, 5 day Alamar Blue (Example 8): ZR-75-1; assay type: cell-based; conditions: ZR-75-1, Breast Cancer Cell Viability
Method: as §1, §2, §9, §10, §11
as §5, with “•” for “• Cells were seeded 2×10^5 in 96-well cell culture treated tissue culture plates: 87.5 μL/well; MM.1 S, MM,1R, NCIH510A. •”, “dosing. HPAFII was screened in normal 10% FBS Media.” for “dosing.”
as §12, §7, §8

MM.1R = assay: Cell viability assay, suspension cell line, 5 day Alamar Blue (Example 8): MM.1R; assay type: cell-based; conditions: 120 h, Multiple Myeloma (Steroid Resistant) Cancer Cell
Method: as §1, §2, §3, §4, §5, §6, §7, §8

LoVo = assay: Cell viability assay, adherent cell line, 5 day Alamar Blue (Example 8): LoVo; assay type: cell-based; conditions: Homo sapiens, 120 h, Colorectal Cancer Cell Viability
Method: as §1, §2, §9, §10, §11
as §5, with “•” for “• Cells were seeded 2×10^5 in 96-well cell culture treated tissue culture plates: 87.5 μL/well; MM.1 S, MM,1R, NCIH510A. •”, “dosing. HPAFII was screened in normal 10% FBS Media.” for “dosing.”
as §12, §7, §8

NIHOVCAR3 = assay: Cell viability assay, adherent cell line, 5 day Alamar Blue (Example 8): NIHOVCAR3; assay type: cell-based; conditions: Homo sapiens, OVCAR-3, 120 h, OVCAR3, Ovarian Cancer Cell
Method: as §1, §2, §9, §10, §11
as §5, with “•” for “• Cells were seeded 2×10^5 in 96-well cell culture treated tissue culture plates: 87.5 μL/well; MM.1 S, MM,1R, NCIH510A. •”, “dosing. HPAFII was screened in normal 10% FBS Media.” for “dosing.”
as §12, §7, §8

ZR-75-1 [2] = assay: ZR-75-1 compound screening cell viability, Alamar Blue (Example 6); assay type: cell-based; conditions: ZR-75-1 cells, Media 1% FBS, read-out: ZR-75-1 Cell Viability, 4 Days: IC50

IC50 (MM.1S): 1000 to 8000 nM
IC50 (Human eIF4E (aa 28-217)): 500 to 1000 nM
IC50 (T47D): 1000 to 8000 nM
IC50 (MM.1R): 1000 to 8000 nM
IC50 (LoVo): 1000 to 8000 nM
Molecule: Cc1ccc(-c2cnc(Nc3nc(C4CCC(F)(F)CC4)c(CC(C)C)s3)c(C(=O)O)c2)s1 [Compound I-30]
IC50 (NCIH510A): 1000 to 8000 nM
IC50 (HPAFII): > 8000 nM
IC50 (ZR-75-1 [1]; Homo sapiens, 120 h): 1000 to 8000 nM
IC50 (NIHOVCAR3): 1000 to 8000 nM

Molecule: Cc1nc(Nc2ncc(-c3cccs3)cc2C(=O)O)sc1CC(C)C [Compound I-17]
IC50 (ZR-75-1 [1]; Homo sapiens, 120 h): > 8000 nM
IC50 (ZR-75-1 [2]; Homo sapiens, 96 h): > 8000 nM

Molecule: 2-((4-(cyclopent-1-en-1-yl)-5-isobutylthiazol-2-yl)amino)-5-(thiophen-2-yl)nicotinic acid [Compound I-7]
IC50 (ZR-75-1 [1]): > 8000 nM
IC50 (ZR-75-1 [2]): < 1000 nM

Molecule: CC(C)Cc1sc(Nc2ncc(-c3cccs3)cc2C(=O)O)nc1C1CCCC1 [Compound I-6, 2-((4-cyclopentyl-5-isobutylthiazol-2-yl)amino)-5-(thiophen-2-yl)nicotinic acid]
IC50 (ZR-75-1 [1]; Homo sapiens, 120 h): ≤ 1000 nM
IC50 (ZR-75-1 [2]; Homo sapiens, 96 h): < 1000 nM

Molecule: O=C(O)c1cc(-c2cccs2)cnc1Nc1nccs1 [Compound I-15]
IC50 (ZR-75-1 [1]; Homo sapiens, 120 h): > 8000 nM
IC50 (ZR-75-1 [2]; Homo sapiens, 96 h): > 8000 nM

Molecule: CC(C)Cc1sc(Nc2ncc(-c3cccs3)cc2C(=O)O)nc1C(C)C [Compound I-26]
IC50 (ZR-75-1 [1]; Homo sapiens, 120 h): ≤ 1000 nM

Molecule: O=C(O)c1cc(-c2cccs2)cnc1Nc1nc(C(F)(F)F)cs1 [Compound I-12]
IC50 (ZR-75-1 [1]; Homo sapiens, 120 h): 1000 to 8000 nM
IC50 (ZR-75-1 [2]; Homo sapiens, 96 h): 1000 to 8000 nM

Molecule: Cc1nc(Nc2ncc(-c3cccs3)cc2C(=O)O)sc1C [Compound I-14]
IC50 (ZR-75-1 [1]; Homo sapiens, 120 h): 1000 to 8000 nM
IC50 (ZR-75-1 [2]; Homo sapiens, 96 h): 1000 to 8000 nM

IC50 (MM.1S): ≤ 1000 nM
IC50 (Human eIF4E (aa 28-217)): 500 to 1000 nM
IC50 (T47D): ≤ 1000 nM
IC50 (MM.1R): 1000 to 8000 nM
IC50 (LoVo): ≤ 1000 nM
Molecule: CC(C)Cc1sc(Nc2ncc(-c3cccs3)cc2C(=O)O)nc1C1=CCC(F)(F)CC1 [Compound I-4]
IC50 (NCIH510A): ≤ 1000 nM
IC50 (HPAFII): ≤ 1000 nM
IC50 (ZR-75-1 [1]; Homo sapiens, 120 h): ≤ 1000 nM
IC50 (NIHOVCAR3): ≤ 1000 nM
IC50 (ZR-75-1 [2]; Homo sapiens, 96 h): < 1000 nM

Molecule: CC(C)Cc1cnc(Nc2ncc(-c3cccs3)cc2C(=O)O)s1 [Compound I-18]
IC50 (ZR-75-1 [1]; Homo sapiens, 120 h): 1000 to 8000 nM
IC50 (ZR-75-1 [2]; Homo sapiens, 96 h): 1000 to 8000 nM

Molecule: CC(C)c1sc(Nc2ncc(-c3cccs3)cc2C(=O)O)nc1C1CCC(F)(F)CC1 [Compound I-31]
IC50 (ZR-75-1 [1]; Homo sapiens, 120 h): 1000 to 8000 nM
